Measurements taken from US20240150396A1 (The Texas A&M University System, priority 2021, published 2024).
Several values for one entry are separate records, joined by “and”; a condition that tells them apart may be missing. Identical values can stand only once. Like-named read-outs stand apart in the source and are kept apart here. Non-standard residues stand in square brackets, D forms with d. Residues, ends and D or L forms follow the SMILES beside them. *: point of attachment. Phe(2-OMe) = COc1ccccc1C[C@H](N)C(=O)O; AMC = Cc1cc(=O)oc2cc(N*)ccc12; Cbz = O=C(OCc1ccccc1)*

Tests used:
cruzain [1] = target: T1, cruzain (Trypanosoma cruzi, UniProt P25779); experiment: biochemical; conditions: pH 7.5
T1 sequence (P25779 123-467 limits assumed): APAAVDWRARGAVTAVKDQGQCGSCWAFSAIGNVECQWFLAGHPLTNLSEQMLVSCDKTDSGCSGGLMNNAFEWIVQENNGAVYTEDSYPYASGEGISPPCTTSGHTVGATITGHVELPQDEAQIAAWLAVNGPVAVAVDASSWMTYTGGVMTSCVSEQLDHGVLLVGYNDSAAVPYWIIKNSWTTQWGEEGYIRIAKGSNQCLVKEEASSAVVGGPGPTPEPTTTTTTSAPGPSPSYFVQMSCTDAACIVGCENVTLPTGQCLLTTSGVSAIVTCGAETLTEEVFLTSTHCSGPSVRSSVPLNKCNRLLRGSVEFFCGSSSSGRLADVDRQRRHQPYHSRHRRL
Method: All enzyme assays were performed at 25° C. Initial rates of the peptidolytic reaction catalyzed by cruzain were measured by monitoring the fluorescence generated by cleavage of the dipeptide-AMC bond. Assays were conducted in 96-well plates (Greiner; flat-bottom, clear black plates) in a total volume of 250 μL, containing either 50 mM MES (pH 7.5), 50 mM TAPSO, 100 mM DEA, 1 mM CHAPS, 1 mM Na2EDTA, 5 mM DTT, and 10% DMSO (v/v) or 50 mM sodium acetate (pH 5.5), 50 mM MES, 100 mM TEA, 1 mM CHAPS, 1 mM Na2EDTA, 5 mM DTT, and 10% DMSO (v/v). Substrates were dissolved in 100% DMSO and were then diluted 10-fold such that when added to reaction mixtures, final DMSO concentration was 10% (v/v). […] Fluorescence was measured on either a SpectraMax M5 (Molecular Devices) or a Synergy HTX (BioTek, Winooski, VT) microplate reader (λex=360 nm, λem=460 nm). Initial rates were determined from continuous kinetic time courses and calculated from the earliest time points, typically at less than 10 min.
(2) Enzyme and compound were preincubated over extended periods of time, and then aliquots were removed and diluted 50-fold to 100-fold into reaction mixtures containing 10 μM Cbz-Phe-Arg-AMC, followed by the assessment of the resulting time courses.
Data for time-dependent inhibition were fitted by several methods.
Values of kobs versus [inhibitor] were then replotted and fitted to eq 4 for which k3 and k4 represent the respective rates of formation and dissolution of the EI* complex as depicted in FIG. 9.
In addition, time-course data were fitted globally by two methods. First, expressions for vs, vi, and kobs were substituted into eq 3 to generate eq 6, which was used to fit time-course data at all concentrations of inhibitors simultaneously. Second, time-course data were fitted using KinTek Explorer as either a single-binding step model with the two kinetic parameters k3/Ki and k4 or a two-step binding mechanism as shown in FIG. 9 from which rate constants k1-k4 are determined (Supporting Information).
Enzyme Assays. The preparation of cruzain and 3CL^pro were described in previous publications.^8, 34 The evaluation of inhibitors was modified from our lab protocol and described briefly as follows.^35 All enzyme assays were conducted in 96-well, clear bottom, black plates at 25° C., and fluorescence emanating from product formation was measured using either a SpectraMax M5 (Molecular Devices) or a Synergy HTX (Biotek) microplate reader, with excitation at λex=360 nm and emission at λem=460 nm. […] Reactions were started with addition of enzyme (typically, to a final concentration of 0.2 nM for cruzain or 40 nM for 3CL^pro), and the time courses were recorded for 0.5-1 h.
Kinetic Data Analysis. All time-course data were fitted to eq. 1, wherein P is the fluorescence generated by formation of AMC or liberated ACC, C is the background constant, vi and vs are respectively initial-state and steady-state reaction rates, t is time, and kobs is the observed rate of conversion of the initial inhibited rate to the final inhibited rate.^46
Overall inhibition constants (Ki* values) were obtained by fitting vs/v0 to eq. 4, wherein vs and v0 are steady-state reaction rates in the presence and absence of inhibitor respectively, [S] and [I] represent the fixed concentration of substrate and variable inhibitor, Km is the Michaelis constant of the substrate.

[2] = system: T. cruzi (Ca-I/72) in C2C12 murine cardiomyoblasts; experiment: T. cruzi-infected murine cardiomyoblasts (C2C12); format: cell-based, Trypanosoma cruzi; conditions: read-out: EC50 T. cruzi-infected cardiomyoblasts
Method: For the evaluation of the antitrypanocidal activity of cruzain inhibitors, we infected a C2C12 mouse cardiomyoblast cell line (ATCC CRL-1772) with T. cruzi strain Ca-I/72 (a gift from James Dvorak, National Institutes of Health) in […] plates. […] The plates were incubated at 37° C. for 48 h, and the wells were fixed with 2% paraformaldehyde in PBS and stained with 5 μg mL-1 4,6-diamidino-2-phenylindole. After at least 30 min of incubation at room temperature in the dark, the plates were read in an automated microscope, ImageXpress Micro XL (Molecular Devices), and the images were analyzed by custom-built software to quantify and assess viability of the parasites, as well as the host cells independently. The compilation of data was used to calculate the antiparasitic activity (EC50) and host cytotoxicity (CC50).
T. cruzi infection was evaluated in C2C12 murine cardiomyoblast cells. 384-microwell plates containing C2C12 murine cardiomyoblast cells were infected with 10^3 and 10^4 cells of T. cruzi (Ca-I/72), to which was added 3-fold serially-dilutions of inhibitor with maximal concentrations of 10 μM, followed by incubation at 37° C. for 2 days. The wells were fixed with 2% PFA in PBS, and stained by 5 μg/ml of DAPI. After >30 min of incubation in a dark environment, the plates were read on an ImageXpress MicroXL microscope (Molecular Devices). The images were analyzed to quantify parasites as well host cells.

SARS-CoV-2 3CL protease = SARS-CoV-2 3CL protease (Severe acute respiratory syndrome coronavirus 2 (2019-nCoV) (SARS-CoV-2), UniProt P0DTD1); experiment: biochemical; format: biochemical; conditions: read-out: Ki* 3CLpro
[3] = Thiolation of inhibitors with glutathione, LCMS; format: physicochemical; conditions: 1 mM glutathione, 0.5 mM compound, Tris pH 8.0, 10% DMSO, room temperature
Method: Samples were analyzed by HPLC-MS (as described above) by injecting 0.01 mL aliquots onto a Luna […] C18(2) 100 Å, 4.6 mm, 50 mm column (Phenomenex) using the HPLC method described in the chemistry section at 0-6 h time points. […] Integration of the chromatographic peaks of the inhibitors and their GSH adducts at each time point was used to determine the rate of GSH adduct formation.

human cathepsin L = human cathepsin L (Homo sapiens (Human), UniProt P07711); experiment: Human cathepsin L inhibition, Z-FR-AMC assay; format: biochemical
Sequence of human cathepsin L (P07711 114-333): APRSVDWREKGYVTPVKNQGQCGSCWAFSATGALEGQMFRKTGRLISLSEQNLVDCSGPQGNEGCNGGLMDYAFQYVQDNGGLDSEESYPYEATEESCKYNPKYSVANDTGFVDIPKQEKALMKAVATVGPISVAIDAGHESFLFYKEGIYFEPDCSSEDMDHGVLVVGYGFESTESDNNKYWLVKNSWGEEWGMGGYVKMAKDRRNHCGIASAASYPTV
Method: (§1) Recombinant human cathepsins B and L were purchased from Millipore Sigma and used without further treatment. The solid proteins were dissolved into a solution of 50 mM sodium acetate (pH 5.5), 1 mM EDTA, 1 mM CHAPS, 10% (v/v) DMSO, and 5 mM DTT to final concentrations of […] in 20-mL aliquots, and stored at −80° C. until needed. These samples were then diluted into the same buffer to concentrations of −100 nM, and these dilutions were stored at 4° C. and used daily until depletion.
(§2) For assays of cathepsin L and B, inhibitors were evaluated in 0.25-mL reaction mixtures containing a buffer of sodium acetate (pH 5.5), 1 mM CHAPS, 1 mM Na2EDTA, and 5 mM DTT at 25° C. The fluorogenic substrate Cbz-Phe-Arg-7-amino-4-methyl-coumarin (Z-FR-AMC) was dissolved in 100% DMSO, as were all inhibitors, and aliquots of both substrates and inhibitors were added to reaction mixtures to final concentrations of DMSO of 10% (v/v). […] Formation of the fluorescent product AMC was monitored over 30-60-minute time courses for reaction mixtures in 96-well black microplates (Corning Costar®). Rates of peptidolysis of the dipeptide-AMC substrate(s) were measured on either a SpectraMax M5 (Molecular Devices) or a Synergy HTX (Biotek, Wisnooki, VT) microplate reader with λex=360 nm, λem=460 nm in ≥8-sec intervals. Control samples excluded substrate. The measured relative fluorescence units (RFUs) of generated AMC were converted to reaction rates of μM/s by use of a standard curve of known AMC concentrations obtained for both plate readers.

human cathepsin B = human cathepsin B (Homo sapiens (Human), UniProt P07858); experiment: Human cathepsin B inhibition, Z-FR-AMC assay; format: biochemical
Method: as §1, §2

cruzain [4] = target: T1, cruzain; experiment: Kinetic parameters of peptide substrates for cruzain; format: biochemical; conditions: for Km / kcat / kcat/Km: pH 7.5, 25° C., 10% DMSO; for kcat rel: relative to Cbz-Phe-Arg-AMC
Method: All enzyme assays were performed at 25° C. Initial rates of the peptidolytic reaction catalyzed by cruzain were measured by monitoring the fluorescence generated by cleavage of the dipeptide-AMC bond. Assays were conducted in 96-well plates (Greiner; flat-bottom, clear black plates) in a total volume of 250 μL, containing either 50 mM MES (pH 7.5), 50 mM TAPSO, 100 mM DEA, 1 mM CHAPS, 1 mM Na2EDTA, 5 mM DTT, and 10% DMSO (v/v) or 50 mM sodium acetate (pH 5.5), 50 mM MES, 100 mM TEA, 1 mM CHAPS, 1 mM Na2EDTA, 5 mM DTT, and 10% DMSO (v/v). Substrates were dissolved in 100% DMSO and were then diluted 10-fold such that when added to reaction mixtures, final DMSO concentration was 10% (v/v). Reactions were initiated with the addition of 1-10 μL of cruzain (final concentrations: 0.1-3.0 nM (preincubation studies)). Fluorescence was measured on either a SpectraMax M5 (Molecular Devices) or a Synergy HTX (BioTek, Winooski, VT) microplate reader (λex=360 nm, λem=460 nm). Initial rates were determined from continuous kinetic time courses and calculated from the earliest time points, typically at less than 10 min.
Initial velocity data for cruzain-catalyzed reactions of fluorogenic peptide substrates were determined by fitting to eq 1 using GraphPad Prism 6.0 or SigmaPlot 12.0. For eq 1, kcat is the turnover number, [E]t is the concentration of active sites of cruzain, and Ka is the Michaelis constant for the substrate A. Cruzain concentrations were determined by spectrophotometric analysis of purified sample solutions as described.^44

[5] = system: T. b. brucei procyclic forms; experiment: Growth of axenic cultures of T. b. brucei procyclic forms (PCFs); format: cell-based, Trypanosoma brucei brucei; conditions: Trypanosoma brucei, axenic culture; read-out: EC50 T. b. brucei PCF
[6] = system: T. b. brucei bloodstream forms; experiment: Growth of axenic cultures of T. b. brucei bloodstream forms (BSFs); conditions: Trypanosoma brucei, read-out: EC50 T. b. brucei BSF, axenic culture
Method: Selected cruzain inhibitors were evaluated in axenic cell cultures of T. b. brucei and T. cruzi. Procyclic trypomastigotes of T. b. brucei (ATCC PRA-381) were grown in the SDM-79 medium at 26° C., and bloodstream forms (ATCC PRA-383) were grown at 37° C. in the HMI-9 medium at 5% C02. […] Both forms of T. b. brucei and T. cruzi were grown in media containing 10% fetal bovine serum (FBS) and penicillin/streptomycin (50 U mL^−1). […] Control samples contained equal amounts of DMSO. T. b. brucei and T. cruzi (5 mL in flask cultures) were seeded at ˜3×10^6 cells and diluted daily, maintaining a mid-log growth phase for up to 120 h. […] After each cell dilution, fresh compound or an equal volume of DMSO (control samples) was supplemented into the cultures, while maintaining a constant concentration of each inhibitor. Cell counts were scored using a Z2 Coulter Counter.
In vitro Cell Assays. Bloodstream form T. b. brucei strain SM427 was grown in HM1-9 medium that included fetal bovine serum (10%) and antibiotics (100 U/mL penicillin-streptomycin, Gibco™). Inhibitors dissolved in 100% (v/v) DMSO stock solutions were added at final concentrations of 0.5-20 μM (final concentrations of DMSO were <1% (v/v)). T. b. brucei were seeded at ˜1×10^6 cells at 37° C., and diluted daily to maintain a log phase of growth for up to 96 h. […] After each dilution, the cell cultures were supplemented with inhibitor or DMSO (control) to keep concentrations constant. Cell density was determined and graphed as previously reported.^36 Trypanosomes were quantified using a Z2 Coulter Counter, and values of EC50 were determined after 3-4 days of treatment by the interpolation method of Huber and Koella.^37

[7] = apparent tight-binding inhibition constant, 25° C., read-out: Ki*
[8] = Trypanosoma cruzi, C2C12, C2C12 murine cardiomyoblasts
[9] = obtained >10 minutes following initiation of reaction by addition of enzyme, read-out: Ki* Cruzain

## NCCCC[C@@H](/C=C/c1ccccn1)NC(=O)[C@H](Cc1ccccc1)NC(=O)OCc1ccccc1 [Compound 20, (S,E)-5-((S)-2-(((Benzyloxy)carbonyl)amino)-3-phenylpropanamido)-7-(pyridin-2-yl)hept-6-en-1-aminium Chloride]
Cruzain [1]; apparent initial inhibition constant, 25° C., read-out: Ki
  Ki: 17.3 ± 0.3 µM
Cruzain [1]; [7]
  Ki: 0.87 µM
[2]; [8]
  EC50: 5 to 8 µM

## COc1ccccc1C[C@@H](C=O)NC(=O)[C@H](Cc1ccccc1)NC(=O)OCc1ccccc1 [Compound 29] (Cbz-Phe-[Phe(2-OMe)]-aldehyde)
Cruzain [1]; [9]
  Ki: 0.022 µM
SARS-CoV-2 3CL protease
  Ki: > 10 µM

## C[n+]1ccsc1/C=C/[C@H](Cc1ccccc1)NC(=O)[C@H](Cc1ccccc1)NC(=O)OCc1ccccc1.[I-] [Compound 26, 2-((S,E)-3-((S)-2-(((Benzyloxy)carbonyl)amino)-3-phenylpropanamido)-4-phenylbut-1-en-1-yl)-3-methylthiazol-3-ium Iodide]
Cruzain [1]; [7]
  Ki: 0.94 ± 0.06 µM
[3]
  Rate of Thiolation, k: 0.25 ± 0.083 M⁻¹ s⁻¹

## O=C(N[C@@H](Cc1ccccc1)C(=O)N[C@H](/C=C/c1nccs1)Cc1ccccc1)OCc1ccccc1 [Compound 25, Benzyl ((S)-1-Oxo-3-phenyl-1-(((S,E)-1-phenyl-4-(thiazol-2-yl)-but-3-en-2-yl)amino)propan-2-yl)carbamate]
Cruzain [1]; [7]
  Ki: 1.71 µM
[3]
  Rate of Thiolation, k: Negligible

## Cc1cc(=O)oc2cc(NC(=O)[C@H](CCCN=C(N)N)NC(=O)[C@H](Cc3ccccc3)NC(=O)OCc3ccccc3)ccc12 [Compound S1, Cbz-Phe-Arg-AMC] (Cbz-Phe-Arg-{AMC})
Human cathepsin L; pH 5.5
  Km: 2.9 µM
Human cathepsin B; pH 5.5
  Km: 150 µM
Cruzain [4]
  Km: 0.89 ± 0.09 µM
  kcat: 9.6 ± 0.2 s⁻¹
  kcat/Km: 1.1e+07 ± 1e+06 M⁻¹ s⁻¹
  kcat rel: 1.00
Cruzain [4]; listed as Cbz-Phe-Arg-AMC
  Km: 0.9 µM
  kcat/Km: 1.1e+07 M⁻¹ s⁻¹

## Cc1ccc2c(c1)C[C@H](NC(=O)[C@H](Cc1ccccc1)NC(=O)OCc1ccccc1)C(O)O2 (stereo partly drawn) [Compound 32, Benzyl ((2S)-1-(((3S)-2-hydroxy-6-methylchroman-3-yl)amino)-1-oxo-3-phenylpropan-2-yl)carbamate]
Cruzain [1]; Ki* Cruzain, obtained >10 minutes following initiation of reaction by addition of enzyme
  Ki: 0.1 µM
Cruzain [1]; [9]
  Ki: 0.103 ± 0.005 µM
Human cathepsin L; pH 5.5, 25° C., read-out: Ki* hCatL
  Ki: 0.058 ± 0.002 µM
Human cathepsin B; pH 5.5, 25° C., read-out: Ki* hCatB
  Ki: 6.1 ± 0.9 µM
SARS-CoV-2 3CL protease; pH 7.5
  Ki: > 10 µM
[2]; C2C12 murine cardiomyoblasts
  EC50: 3 to 5.7 µM
[2]; [8]
  EC50: 5.7 ± 0.6 µM
[5]
  EC50: 7 µM
[6]
  EC50: 0.5 µM

## Cc1cc(=O)oc2cc(NC(=O)C(CCc3ccccc3)NC(=O)C(Cc3ccccc3)NC(=O)N3CCN(C)CC3)ccc12 (stereo not drawn) [Compound S7, NMePip-Phe-hPhe-AMC]
Cruzain [4]
  Km: 3.1 ± 0.3 µM
  kcat: 4.0 ± 0.1 s⁻¹
  kcat/Km: 1.3e+06 M⁻¹ s⁻¹ and 1.3e+06 ± 100000 M⁻¹ s⁻¹
  kcat rel: 0.42
